Source: patent US7402605B2, “8-azaprostaglandin derivative compounds and drugs containing the compounds as the active ingredient” (Ono Pharmaceutical Co., Ltd., priority 2002, dated 2008)

Target: T1, mouse EP2 receptor (Mus musculus, UniProt Q62053)
T1 construct: expressed in transfected cells; host or cells: CHO cells (membrane fraction)
Test: Receptor-binding experiment (3H-PGE2 displacement) using membranes of CHO cells expressing prostanoid receptor sub-type EP2
Conditions: inhibition of 3H-PGE2 (2.5 nM) binding, CHO cell membrane fraction, room temperature 1 hour, pH 6.0; Ki=IC50/(1+([C]/Kd))
Description: (i) Experiment for Receptor-Binding Using Cells Which Express Prostanoid Receptor Sub-Types
According to the method of Sugimoto et al. (J. Biol. Chem., 267, 6463-6466 (1992)), CHO cells which expressed prostanoid receptor sub-types (murine EP1, EP2, EP3α, and EP4, respectively) were prepared and used as membrane authentic samples.
A reaction solution (200 μl) containing the prepared membrane fraction (0.5 mg/ml) and ^3H-PGE2 was incubated at room temperature for 1 hour. The reaction was terminated with ice cold buffer (3 ml), and the reaction mixture was filtered under suction through a glass filter (GF/B), on which the binding ^3H-PGE2 was trapped, and the binding radioactivity was measured by means of a liquid scintillator.
The Kd value was obtained from the Scatchard plots [Ann. N.Y. Acad. Sci., 51, 660 (1949)]. Non-specific binding was obtained as the binding in the presence of an excess amount (2.5 μM) of unlabelled PGE2. Measurement of the binding inhibition for ^3H-PGE2 with the compounds of the present invention was performed by adding ^3H-PGE2 (2.5 nM) and a series of concentrations of the compound of the present invention. In this reaction, the following buffer was used in all cases. • Buffer: 10 mM potassium phosphate (pH 6.0), 1 mM EDTA, 10 mM MgCl2, and 0.1M NaCl.
Dissociation constant Ki (μM) of each compound was calculated from the following equation. […]

T1 sequence (Q62053 whole entry): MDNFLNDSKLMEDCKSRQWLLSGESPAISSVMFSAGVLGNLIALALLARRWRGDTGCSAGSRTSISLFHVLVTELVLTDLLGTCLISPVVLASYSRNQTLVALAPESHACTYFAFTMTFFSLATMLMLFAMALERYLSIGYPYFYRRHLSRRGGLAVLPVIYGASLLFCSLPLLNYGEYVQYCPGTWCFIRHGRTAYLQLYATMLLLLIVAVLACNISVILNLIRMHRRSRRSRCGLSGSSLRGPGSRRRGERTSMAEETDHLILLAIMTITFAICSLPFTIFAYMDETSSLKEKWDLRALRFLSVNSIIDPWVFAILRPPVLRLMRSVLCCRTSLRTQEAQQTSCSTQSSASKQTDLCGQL

- Ki: 14 nM
SMILES: CCCCc1ccc(C2CCC(=O)N2CCSc2nc(C(=O)O)cs2)cc1 (stereo not shown) [Example 4(1), 2-(2-(2-(4-n-butylphenyl)-5-oxopyrrolidin-1-yl)ethylthio)thiazole-4-carboxylic acid]
